Patent US5240941A, “Thioxo quinoline compounds, composition and method of use” (ICI Pharma, priority 1990, dated 1993)

How the values were obtained:
5-LO [1] = assay: Test b) heparinised human blood, A23187 challenge, LTB4 radioimmunoassay; type: cell-based
Description: b) An in vitro assay system involving incubating a test compound with heparinised human blood, prior to challenge with the calcium ionophore A23187 and then indirectly measuring the inhibitory effects on 5-LO by assaying the amount of LTB4 using specific radioimmunoassays described by Carey and Forder (F. Carey and R. A. Forder, Prostaglandins Leukotrienes Med., 1986, 22, 57; Prostaglandins,1984, 28, 666; Brit. J. Pharmacol. 1985, 84, 34P) which involve the use of a protein-LTB4 conjugate produced using the procedure of Young et alia (Prostaglandins, 1983, 26(4), 605-613). The effects of a test compound on the enzyme cyclooxygenase (which is involved in the alternative metabolic pathway for arachidonic acid and gives rise to prostaglandins, thromboxanes and related metabolites) may be measured at the same time using the specific radioimmunoassay for thromboxane B2 (TxB2) described by Carey and Forder (see above). This test provides an indication of the effects of a test compound against 5-LO and also cyclooxygenase in the presence of blood cells and proteins. It permits the selectivity of the inhibitory effect on 5-LO or cyclooxygenase to be assessed.

5-LO [2] = assay: Test g) zymosan-induced LTB4 liberation in air pouch of male rats; type: in vivo; settings: 3 h; test g), rat air pouch, oral
Description: g) An in vivo system involving measuring the effects of a test compound administered orally against the liberation of LTB4 induced by zymosan within an air pouch generated within the subcutaneous tissue of the back of male rats. The rats are anaesthetised and air pouches are formed by the injection of sterile air (20 ml). A further injection of air (10 ml) is similarly given after 3 days. At 6 days after the initial air injection the test compound is administered (usually orally as the suspension produced when a solution of the test compound in dimethylsulphoxide is added to hydroxypropylmethylcellulose), followed by the intrapouch injection of zymosan (1 ml of a 1% suspension in physiological saline). After 3 hours the rats are killed, the air pouches are lavaged with physiological saline, and the specific radioimmunoassay described above is used to assay LTB4 in the washings. This test provides an indication of inhibitory effects against 5-LO in an inflammatory milieu.

| IC50 (5-LO [1]) | Structure (SMILES) | ED50 (5-LO [2]) |
| --- | --- | --- |
| 100 nM | COC1(c2cc(F)cc(OCc3ccc4c(c3)CCC(=S)N4C)c2)CCOCC1 [4-[5-fluoro-3-(1-methyl-2-thioxo-1,2,3,4-tetrahydroquinolin-6-ylmethoxy)phenyl]-4-methoxytetrahydropyran] | 1.5 mg/kg |
| 50 nM | COC1(c2cc(F)cc(Sc3ccc4c(c3)CCC(=S)N4C)c2)CCOCC1 [4-[5-fluoro-3-(1-methyl-2-thioxo-1,2,3,4-tetrahydroquinolin-6-ylthio)phenyl]-4-methoxytetrahydropyran] | 0.5 mg/kg |
